The source of these data is patent publication US20240067632A1, “WEE1 Degrading Compounds and Uses Thereof” (Bristol-Myers Squibb Company, priority 2022, published 2024).

Test [1] deals with T1, WEE1 (Homo sapiens, UniProt P30291+Q96SW2).
T1 construct: C-terminal ePL-tagged (DiscoverX, Fremont, CA) full-length WEE1 expression construct; expressed in transfected cells; host or cells: LentiX-HEK293T (Invitrogen), lentiviral transduction; co-expressing GSPT1-GN (G576N, lacking the first 158 amino acids)
In words: WEE1-ePL degradation assay (LentiX-WEE1-ePL-GSPT1-ND cells, InCELL Hunter luminescence, 4 h). The test is classed as cell-based. As to conditions: 293T-LentiX WEE1-ePL cells; for DC50: read-out: 293T-LentiX WEE1-ePL Degradation 4 hr (EC50). The method, boiled down: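 LentiX-HEK293T cells stably expressing C-terminally ePL-tagged full-length WEE1 were treated with compounds in a 10-point, 3-fold dilution series starting at 1 uM or 10 uM for 4 h at 37 °C. Remaining WEE1-ePL was detected by InCELL Hunter luminescence, and EC50, Ymin and Ymax came from a four-parameter logistic fit against DMSO control.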

Test [2] relates to MKN45 cells. In words: MKN45 cell proliferation assay (Cell-Titer-Glo, 120 h). The format is cell-based. Conditions: for pEC50: Homo sapiens, MKN-45, 120 h, Cell-Titer-Glo, read-out: MKN45 Cell Prolif. 120 hr (EC50); for MKN45 Cell Prolif. 120 hr (Ymin-Obs): minimal percent of DMSO control observed in the concentrations tested. An outline of the steps: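 Cells seeded at 400/well onto pre-printed 10-point half-log dilutions (top 1 or 10 uM, 0.1% DMSO final), in triplicate, and grown 120 h at 37 C. Viability by Cell-Titer-Glo luminescence, blank-subtracted and normalised to DMSO; EC50 from four-parameter logistic fit, with observed minimal % of control recorded as Ymin-obs.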

Setting [3] is: lower limit of the fit (0 = luciferase inhibitor, Ymax = DMSO control).
[4] abbreviates: lower limit of the fit (Ymin=0 luciferase inhibitor, Ymax DMSO control).

pEC50: −log10 of the molar value. Where two headings read alike, the source gives them in different places.

For the compound `O=C1CC[C@H](N2Cc3cc(O[C@H]4CCN(Cc5ccc6nc([C@@H]7CCOC7)ccc6c5)C4)ccc3C2=O)C(=O)N1` [(3S)-3-(1-oxo-5-{[(3S)-1-({2-[(3S)-oxolan-3-yl]quinolin-6-yl}methyl)pyrrolidin-3-yl]oxy}-2,3-dihydro-1H-isoindol-2-yl)piperidine-2,6-dione], in test [1] (setting [3]), the “293T-LentiX WEE1-ePL Degradation 4 hr (Ymin)” value worked out at 30. Besides, the DC50 in test [1] amounted to 2.13 nM. Also, the pEC50 in test [2] (growth inhibition) was 8.39. For the same compound, the “MKN45 Cell Prolif. 120 hr (Ymin-Obs)” value in test [2] is on record as 9.489.
`O=C1CC[C@H](N2Cc3cc(O[C@H]4CCN(Cc5ccc6ncccc6c5)C4)ccc3C2=O)C(=O)N1` [(3S)-3-(1-oxo-5-{[(3S)-1-[(quinolin-6-yl)methyl]pyrrolidin-3-yl]oxy}-2,3-dihydro-1H-isoindol-2-yl)piperidine-2,6-dione]: the “293T-LentiX WEE1-ePL Degradation 4 hr (Ymin)” value in test [1] (setting [3]) is on record as 26.52. Further, the DC50 in test [1] was 7.42 nM. In test [2] (growth inhibition), the pEC50 is 7.50. Also, in test [2], the “MKN45 Cell Prolif. 120 hr (Ymin-Obs)” value is given as 12.265.
The like results for `O=C1CC[C@H](N2Cc3cc(O[C@H]4CCN(Cc5ccc6nc(N7CCCC7=O)ccc6c5)C4)ccc3C2=O)C(=O)N1` [(3S)-3-(1-oxo-5-{[(3S)-1-{[2-(2-oxopyrrolidin-1-yl)quinolin-6-yl]methyl}pyrrolidin-3-yl]oxy}-2,3-dihydro-1H-isoindol-2-yl)piperidine-2,6-dione] were, in that order, 40, 1.51 nM, 8.55 and 8.56.
Turning to `O=C1CC[C@H](N2Cc3cc(O[C@H]4CCN(Cc5ccc6nc(N7CCCC7)ncc6c5)C4)ccc3C2=O)C(=O)N1` [(3S)-3-(1-oxo-5-{[(3S)-1-{[2-(pyrrolidin-1-yl)quinazolin-6-yl]methyl}pyrrolidin-3-yl]oxy}-2,3-dihydro-1H-isoindol-2-yl)piperidine-2,6-dione], the “293T-LentiX WEE1-ePL Degradation 4 hr (Ymin)” value in test [1] (setting [4]) is listed as 43.18. Besides, in test [1], the DC50 was found to be 6.04 nM. In test [2], the pEC50 is 7.57 and the “MKN45 Cell Prolif. 120 hr (Ymin-Obs)” value is on record as 21.92.
As to `O=C1CC[C@H](N2Cc3cc(O[C@@H]4CN(Cc5ccc6nc([C@H]7CCOC7)ccc6c5)CC4(F)F)ccc3C2=O)C(=O)N1` [(3S)-3-(5-{[(3R)-4,4-difluoro-1-({2-[(3R)-oxolan-3-yl]quinolin-6-yl}methyl)pyrrolidin-3-yl]oxy}-1-oxo-2,3-dihydro-1H-isoindol-2-yl)piperidine-2,6-dione], the “293T-LentiX WEE1-ePL Degradation 4 hr (Ymin)” value in test [1] (setting [4]) turned out to be 28.37. Besides, in test [1], the DC50 was determined as 11.7 nM. Moreover, in test [2], the pEC50 is 8.12 and the “MKN45 Cell Prolif. 120 hr (Ymin-Obs)” value was found to be 8.319.
On to `O=C1CC[C@H](N2Cc3cc(O[C@@H]4CN(Cc5ccc6nc([C@@H]7CCOC7)ccc6c5)CC4(F)F)ccc3C2=O)C(=O)N1` [(3S)-3-(5-{[(3R)-4,4-difluoro-1-({2-[(3S)-oxolan-3-yl]quinolin-6-yl}methyl)pyrrolidin-3-yl]oxy}-1-oxo-2,3-dihydro-1H-isoindol-2-yl)piperidine-2,6-dione], for which the “293T-LentiX WEE1-ePL Degradation 4 hr (Ymin)” value in test [1] (setting [4]) came out at 30.03. Besides, the DC50 in test [1] came out at 8.72 nM. In test [2], the pEC50 is 8.20 and the “MKN45 Cell Prolif. 120 hr (Ymin-Obs)” value stood at 8.017.
`O=C1CC[C@H](N2Cc3cc(O[C@@H]4CN(Cc5ccc6nc(C7CCOCC7)ncc6c5)CC4(F)F)ccc3C2=O)C(=O)N1` [(3S)-3-(5-{[(3R)-4,4-difluoro-1-{[2-(oxan-4-yl)quinazolin-6-yl]methyl}pyrrolidin-3-yl]oxy}-1-oxo-2,3-dihydro-1H-isoindol-2-yl)piperidine-2,6-dione]: in test [1] (setting [4]), the “293T-LentiX WEE1-ePL Degradation 4 hr (Ymin)” value stood at 22.61. Moreover, the DC50 in test [1] was 105 nM. Besides, in test [2], the pEC50 was 7.34 and the “MKN45 Cell Prolif. 120 hr (Ymin-Obs)” value stood at 10.37.
The like results for `O=C1CC[C@H](N2Cc3cc(O[C@@H]4CN(Cc5cc6ccc(C7CCOCC7)cc6cn5)CC4(F)F)ccc3C2=O)C(=O)N1` [(3S)-3-(5-{[(3R)-4,4-difluoro-1-{[7-(oxan-4-yl)isoquinolin-3-yl]methyl}pyrrolidin-3-yl]oxy}-1-oxo-2,3-dihydro-1H-isoindol-2-yl)piperidine-2,6-dione] were, in that order, 26.77, 2.76 nM, 8.66 and 9.546.
The like results for `CC1(C)C[C@H](c2ncc3cc(CN4CC[C@H](Oc5ccc6c(c5)CN([C@H]5CCC(=O)NC5=O)C6=O)C4)ccc3n2)CCO1` [(3S)-3-(5-{[(3S)-1-({2-[(4R)-2,2-dimethyloxan-4-yl]quinazolin-6-yl}methyl)pyrrolidin-3-yl]oxy}-1-oxo-2,3-dihydro-1H-isoindol-2-yl)piperidine-2,6-dione] were, in that order, 29.31, 32.3 nM, 7.81 and 11.79.
Take `CC1(C)C[C@H](c2ccc3cc(CN4CC[C@H](Oc5ccc6c(c5)CN([C@H]5CCC(=O)NC5=O)C6=O)C4)ccc3n2)CCO1` [(3S)-3-(5-{[(3S)-1-({2-[(4R)-2,2-dimethyloxan-4-yl]quinolin-6-yl}methyl)pyrrolidin-3-yl]oxy}-1-oxo-2,3-dihydro-1H-isoindol-2-yl)piperidine-2,6-dione]: the “293T-LentiX WEE1-ePL Degradation 4 hr (Ymin)” value in test [1] (setting [4]) is reported as 26.67. The DC50 in test [1] was 1.85 nM. In test [2], the pEC50 was 8.74 and the “MKN45 Cell Prolif. 120 hr (Ymin-Obs)” value is 11.19.
The like results for `CC1(C)C[C@@H](c2ccc3cc(CN4CC[C@H](Oc5ccc6c(c5)CN([C@H]5CCC(=O)NC5=O)C6=O)C4)cc(F)c3n2)CCO1` [(3S)-3-(5-{[(3S)-1-({2-[(4S)-2,2-dimethyloxan-4-yl]-8-fluoroquinolin-6-yl}methyl)pyrrolidin-3-yl]oxy}-1-oxo-2,3-dihydro-1H-isoindol-2-yl)piperidine-2,6-dione] were, in that order, 28.17, 3.8 nM, 8.78 and 9.621.
The matching figures for `CC1(C)C[C@@H](c2ncc3cc(CN4CC[C@H](Oc5ccc6c(c5)CN([C@H]5CCC(=O)NC5=O)C6=O)C4)ccc3n2)CCO1` [(3S)-3-(5-{[(3S)-1-({2-[(4S)-2,2-dimethyloxan-4-yl]quinazolin-6-yl}methyl)pyrrolidin-3-yl]oxy}-1-oxo-2,3-dihydro-1H-isoindol-2-yl)piperidine-2,6-dione]: 26.33, 24.9 nM, 8.11 and 8.718.
In the case of `CC1(C)C[C@@H](c2ccc3cc(CN4CC[C@H](Oc5ccc6c(c5)CN([C@H]5CCC(=O)NC5=O)C6=O)C4)ccc3n2)CCO1` [(3S)-3-(5-{[(3S)-1-({2-[(4S)-2,2-dimethyloxan-4-yl]quinolin-6-yl}methyl)pyrrolidin-3-yl]oxy}-1-oxo-2,3-dihydro-1H-isoindol-2-yl)piperidine-2,6-dione], the “293T-LentiX WEE1-ePL Degradation 4 hr (Ymin)” value in test [1] (setting [4]) was 24.69. The DC50 in test [1] was 1.77 nM. In test [2], the pEC50 is 8.87 and the “MKN45 Cell Prolif. 120 hr (Ymin-Obs)” value came to 9.025.

Usually pEC50 stands for the EC50 on a negative log10 scale, so that one unit is a factor of ten.
